The record followed here is ChEMBL document CHEMBL1128313, “In vitro muscarinic activity of spiromuscarones and related analogs” (J Med Chem, 1995).

The source made the active and inactive calls. No cut-off for these calls is given here.

The target in test [1] is Muscarinic acetylcholine receptor.
Description: Binding affinity against muscarinic acetylcholine receptor from rat brain crude membrane, using [3H]-NMS (N-Methylscopolamine) as the radioligand.
The species entered for the next test is Rattus norvegicus. Kind of test: The compound was tested for maximum stimulation of PI (phosphatidyl inositol) in rat hippocampal tissue, activity is expressed as percent of carbachol response; Inactive. Format: functional. As to conditions: Hippocampus.

The compound `CC1OC2(CCN(C)CC2)CC1=O` (stereo unspecified) gave a Ki in test [1] of 2.68 µM. Same read-out and setting: then `CC1OC2(CCN(C)CC2)CC1O` (stereo unspecified), with 141 µM. Regarding `CC1OC2(CCN(C)CC2)C2OCCOC12` (stereo unspecified), in the test filed under Rattus norvegicus, the Max stimulation result is “inactive”. On to `CC(=O)O/N=C1\COC2(CCN(C)CC2)C1.O=C(O)/C=C\C(=O)O.O=C(O)C(=O)O`, for which the inhibition constant (Ki) in test [1] came out at 44.8 µM. This lies in the double-digit micromolar range. `CC1OC2(CCN(C)CC2)CC1O.Cl` (stereo unspecified) came in with a Ki in test [1] of 430 µM. The same measure, in the same setting: then `CC1CC(=O)C2(CCN(C)CC2)O1` (stereo unspecified), with 33 µM; and `CC1CC(O)C2(CCN(C)CC2)O1` (stereo unspecified), with 30 µM; and `CC(=O)OC1COC2(CCN(C)CC2)C1` (stereo unspecified), with 98.7 µM. As to `CC1OC2(CCN(C)CC2)C/C1=N\O` (stereo unspecified), the inhibition constant (Ki) in test [1] was 1.63 µM. As to `CC1OC2(CCN(C)CC2)C2SCCSC12` (stereo unspecified), the Max stimulation entry in the test listed under Rattus norvegicus is “inactive”. `CCC(=O)O/N=C1\COC2(CCN(C)CC2)C1.O=C(O)/C=C\C(=O)O.O=C(O)C(=O)O` gave an inhibition constant (Ki) in test [1] of 38.1 µM.
